Measurements: PMC9021288 (Nature Communications, 2022)
Several values for one entry are separate records, joined by “and”; a condition that tells them apart may be missing. Equal values may be shown once.

Assay: 7-day Maximum Tolerated Dose 1 (MTD1) rat study
Format: in vivo, Wistar Han rats
Set-up: AUC(0 - t) / Cmax / Urea / Glucose / Triglycerides: unit not given here
Conditions: for Liver weight: MTD1 study, individual animals; for Triglycerides / Urea / Glucose: Male
Description: See the summary of the study design in Supplementary Table 31. Nine-week-old Wistar (Crl:WI (Han)) rats were obtained from Charles River Laboratories (Domaine des Oncins, Saint-Germain-Nuelles, France). […] Animals were examined daily for any altered clinical signs, body weights, and food consumption. Blood samples were taken at different timepoints after the test item administration, and toxicokinetic exposure assessed under the defined experimental conditions and analyzed using Phoenix (version 6.4 and 1.4) (Supplementary Table 32). Measurements included hematology and clinical chemistry measurements. Animals were euthanized and necropsied at the end of the dosing period. At necropsy, major organ systems and tissues were collected and weighed and then examined for gross lesions as well as for microscopic changes.

## C[C@@H](CNC(=O)[C@H](O)C(C)(C)CO)NC(=O)c1cc(F)c(F)cc1F [MMV693183]
MTD1 females, Day 1, 200 mg/kg/day, 0 h
  Concentration: LLOQ
MTD1 females, Day 1, 200 mg/kg/day, 1 h
  Concentration: 86.7 µM and 116 µM
MTD1 females, Day 1, 200 mg/kg/day, 4 h
  Concentration: 21.3 µM and 11.6 µM
MTD1 females, Day 1, 200 mg/kg/day, 8 h
  Concentration: 6.7 µM and 4.68 µM
MTD1 females, Day 1, 600 mg/kg/day, 0 h
  Concentration: LLOQ
MTD1 females, Day 1, 600 mg/kg/day, 1 h
  Concentration: 311 µM
MTD1 females, Day 1, 600 mg/kg/day, 4 h
  Concentration: 74.9 µM and 64.8 µM
MTD1 females, Day 1, 600 mg/kg/day, 8 h
  Concentration: 49.5 µM and 25.8 µM
MTD1 females, Day 1, 600 mg/kg/day, 24 h
  Concentration: LLOQ
MTD1 females, Day 7, 60 mg/kg/day, 0 h
  Concentration: LLOQ
MTD1 females, Day 7, 60 mg/kg/day, 1 h
  Concentration: 21.8 µM and 20.3 µM
MTD1 females, Day 7, 60 mg/kg/day, 4 h
  Concentration: 2.9 µM and 3.02 µM
MTD1 females, Day 7, 60 mg/kg/day, 8 h
  Concentration: 0.604 µM and 1.2 µM
MTD1 females, Day 7, 60 mg/kg/day, 24 h
  Concentration: LLOQ
MTD1 females, Day 7, 200 mg/kg/day, 0 h
  Concentration: LLOQ
MTD1 females, Day 7, 200 mg/kg/day, 1 h
  Concentration: 10.4 µM and 9.61 µM
MTD1 females, Day 7, 200 mg/kg/day, 4 h
  Concentration: 5.35 µM and 3.22 µM
MTD1 females, Day 7, 200 mg/kg/day, 8 h
  Concentration: 0.804 µM and 0.957 µM
MTD1 females, Day 7, 200 mg/kg/day, 24 h
  Concentration: LLOQ
MTD1 females, Day 7, 600 mg/kg/day, 0 h
  Concentration: 0.568 µM and 0.368 µM
MTD1 females, Day 7, 600 mg/kg/day, 1 h
  Concentration: 15.1 µM and 29.6 µM
MTD1 females, Day 7, 600 mg/kg/day, 4 h
  Concentration: 8.62 µM and 9.68 µM
MTD1 females, Day 7, 600 mg/kg/day, 8 h
  Concentration: 6.83 µM and 6.42 µM
MTD1 males, Day 1, 60 mg/kg/day, 0 h
  Concentration: LLOQ
MTD1 males, Day 1, 60 mg/kg/day, 1 h
  Concentration: 12 µM and 13.7 µM
MTD1 males, Day 1, 60 mg/kg/day, 4 h
  Concentration: 1.09 µM and 1.97 µM
MTD1 males, Day 1, 60 mg/kg/day, 24 h
  Concentration: LLOQ
MTD1 males, Day 1, 200 mg/kg/day, 0 h
  Concentration: LLOQ
MTD1 males, Day 1, 200 mg/kg/day, 1 h
  Concentration: 98.9 µM and 133 µM
MTD1 males, Day 1, 200 mg/kg/day, 4 h
  Concentration: 14 µM and 18.5 µM
MTD1 males, Day 1, 200 mg/kg/day, 24 h
  Concentration: LLOQ
MTD1 males, Day 1, 600 mg/kg/day, 0 h
  Concentration: LLOQ
MTD1 males, Day 1, 600 mg/kg/day, 1 h
  Concentration: 189 µM and 295 µM
MTD1 males, Day 1, 600 mg/kg/day, 4 h
  Concentration: 69.9 µM and 98.6 µM
MTD1 males, Day 7, 60 mg/kg/day, 0 h
  Concentration: LLOQ
MTD1 males, Day 7, 60 mg/kg/day, 1 h
  Concentration: 2.78 µM and 3.29 µM
MTD1 males, Day 7, 60 mg/kg/day, 8 h
  Concentration: LLOQ
MTD1 males, Day 7, 60 mg/kg/day, 24 h
  Concentration: LLOQ
MTD1 males, Day 7, 200 mg/kg/day, 0 h
  Concentration: LLOQ
MTD1 males, Day 7, 200 mg/kg/day, 1 h
  Concentration: 15.5 µM and 8.65 µM
MTD1 males, Day 7, 200 mg/kg/day, 4 h
  Concentration: 2.92 µM and 2.95 µM
MTD1 males, Day 7, 200 mg/kg/day, 8 h
  Concentration: 1.04 µM and 0.952 µM
MTD1 males, Day 7, 200 mg/kg/day, 24 h
  Concentration: LLOQ
MTD1 males, Day 7, 600 mg/kg/day, 0 h
  Concentration: LLOQ
MTD1 males, Day 7, 600 mg/kg/day, 4 h
  Concentration: 4.9 µM and 5.09 µM
MTD1 males, Day 7, 600 mg/kg/day, 24 h
  Concentration: LLOQ
females, 60 mg/kg/day
  Liver weight: 4.84 g and 4.87 g
females, 200 mg/kg/day
  Liver weight: 6.04 g and 5.86 g
females, 600 mg/kg/day
  Liver weight: 6.96 g
males, 60 mg/kg/day
  Liver weight: 8.13 g and 7.71 g
males, 200 mg/kg/day
  Liver weight: 7.63 g and 8.4 g
males, 600 mg/kg/day
  Liver weight: 11.11 g and 12.08 g
  increase in liver weight: up to 71%
60 mg/kg
  Triglycerides: 0.56 and 0.92 and 0.69
  Urea: 6.5 and 7.4 and 9.1
60 mg/kg, 7 days, per rat
  Glucose: 7.28 and 9.9 and 8.53
200 mg/kg
  Glucose: 7.64 and 9.24 and 10.45
  Triglycerides: 0.58 and 0.71 and 0.55
  Urea: 8.3 and 8.1 and 9.4
600 mg/kg
  Glucose: 5.54 and 8.3 and 8.46
  Triglycerides: 0.57 and 0.62 and 0.56
  Urea: 9.5 and 9.2 and 8.3
rat, in vivo
  hematological and clinical chemistry parameters: no significant treatment-related deviations
